Source: US20250339399A1, “SUPRAMOLECULAR SELF-ASSEMBLY SYSTEM” (Beijing Creatron Institute of Pharmaceutical Research Co., …, priority 2022, published 2025)
Several values for one entry are separate records, joined by “and”; a condition that tells them apart may be missing. Identical values can stand only once.

Key:
[1] = Guest molecule concentration after incubation in initial medium without polymer (Comparative Example 1); format: physicochemical; conditions: 37° C.
In short: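 Dissolved guest content measured by HPLC of centrifuged supernatants (37° C., 13000 rpm, 5 min) sampled at 0.5 h, 3 h and 6 h. Incubation was polymer-free at 37° C.±0.5° C. in buffers of pH 2.0-7.4; nominal loading was set by maximum clinical dose.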

[2] = cited from earlier work
[3] = Binary supramolecular self-assembly systems of polymer and target: guest concentration over incubation time (Comparative Example 2); format: physicochemical; conditions: for Concentration of guest molecule in solution / Times that of the initial medium: 6 h
Experimental: Experiments were conducted according to the steps in Comparative Example 1, and quantitative analysis was carried out using the analytical method for each target to investigate the regulation ability […] stacking.

[4] = Binary (carrier), ternary and quaternary supramolecular self-assembly systems of polymer, carrier building block and target: guest concentration over incubation time (Examples 1-56); format: physicochemical
In short: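 Targets were incubated at 37 °C in pH 2.0–7.4 buffers with 0.5% polymer alone or with carrier building blocks, after 0.5 h sonication for ternary systems, and shaken at 200 rpm. Samples at 0.5–6 h were centrifuged and diluted ≥10-fold, and dissolved target was quantified by HPLC; surfactant was added if needed.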

[5] = binary system with 0.5% polymer 101, incubation 0.5 h
[6] = binary system with 0.5% polymer 101, incubation 3 h
[7] = binary system with 0.5% polymer 101, incubation 6 h
[8] = binary system with 0.5% polymer 102, incubation 0.5 h
[9] = binary system with 0.5% polymer 102, incubation 3 h
[10] = binary system with 0.5% polymer 102, incubation 6 h
[11] = binary system with 0.5% polymer 103, incubation 0.5 h
[12] = binary system with 0.5% polymer 103, incubation 3 h
[13] = binary system with 0.5% polymer 103, incubation 6 h
[14] = binary system with 0.5% polymer 104, incubation 0.5 h
[15] = binary system with 0.5% polymer 104, incubation 3 h
[16] = binary system with 0.5% polymer 104, incubation 6 h
[17] = binary system with 0.5% polymer 106, incubation 0.5 h
[18] = binary system with 0.5% polymer 106, incubation 3 h
[19] = binary system with 0.5% polymer 106, incubation 6 h
[20] = binary system with 0.5% polymer 107, incubation 0.5 h
[21] = binary system with 0.5% polymer 107, incubation 3 h
[22] = binary system with 0.5% polymer 107, incubation 6 h
[23] = quaternary: 202 (102H+107) + 0.5% 301, 6 h
[24] = quaternary: 202 (102H+107) + 0.5% 302, 6 h
[25] = quaternary: 204 (102H+103E5) + 0.5% 301, 6 h
[26] = quaternary: 204 (102H+103E5) + 0.5% 302, 6 h
[27] = ternary: 0.25% 102H + 0.5% 301, 6 h
[28] = ternary: 0.25% 102H + 0.5% 302, 6 h
[29] = ternary: 102H + 313, carrier % not given, 6 h
[30] = ternary: 102H + 318, carrier % not stated, 6 h
[31] = 0.25% 205 (102H+104) + 0.25% 301, 6 h
[32] = binary, no polymer: 0.5% 301, 6 h
[33] = ternary: 102H (0.25% where stated) + 301, carrier % not stated, 6 h
[34] = ternary: 102H (0.25% where stated) + 302, carrier % not stated, 6 h
[35] = ternary: 102H + 313 at further increased mass percentage, 6 h
[36] = ternary: 102H + 318 at further increased mass percentage, 6 h

CNC(=O)c1cc(Oc2ccc(NC(=O)Nc3ccc(Cl)c(C(F)(F)F)c3)cc2)ccn1 [Sorafenib]
Concentration of guest molecule measured after different incubated time ([1]; 0.5 h, 0.1% SDS in pH 6.8 phosphate buffer): 98.5 µg/mL | Concentration of guest molecule measured after different incubated time ([1]; 3 h, 0.1% SDS in pH 6.8 phosphate buffer): 4.1 µg/mL | Concentration of guest molecule measured after different incubated time ([1]; 6 h, 0.1% SDS in pH 6.8 phosphate buffer): 4.4 µg/mL | LogD7.4 or Log P [2]: 4.34 | Concentration of the target in the solution measured after different incubation time [3, 5]: 741.5 µg/mL | Concentration of the target in the solution measured after different incubation time [3, 6]: 751.6 µg/mL | Concentration of the target in the solution measured after different incubation time [3, 7]: 759.3 µg/mL | Concentration of the target in the solution measured after different incubation time [3, 8]: 770.6 µg/mL | Concentration of the target in the solution measured after different incubation time [3, 9]: 151.8 µg/mL | Concentration of the target in the solution measured after different incubation time [3, 10]: 102.9 µg/mL | Concentration of the target in the solution measured after different incubation time [3, 11]: 602.5 µg/mL | Concentration of the target in the solution measured after different incubation time [3, 12]: 61.5 µg/mL | Concentration of the target in the solution measured after different incubation time [3, 13]: 38.5 µg/mL | Concentration of the target in the solution measured after different incubation time [3, 14]: 108.9 µg/mL | Concentration of the target in the solution measured after different incubation time [3, 15]: 4.3 µg/mL | Concentration of the target in the solution measured after different incubation time [3, 16]: 3.7 µg/mL | Concentration of the target in the solution measured after different incubation time [3, 17]: 765.3 µg/mL | Concentration of the target in the solution measured after different incubation time [3, 18]: 571.3 µg/mL | Concentration of the target in the solution measured after different incubation time [3, 19]: 310.3 µg/mL | Concentration of the target in the solution measured after different incubation time [3, 20]: 784.3 µg/mL | Concentration of the target in the solution measured after different incubation time [3, 21]: 432.2 µg/mL | Concentration of the target in the solution measured after different incubation time [3, 22]: 244.4 µg/mL | Concentration of guest molecule in solution ([3]; binary: 0.5% 102H): 102.9 µg/mL | Times that of the initial medium ([3]; binary: 0.5% 102H): 18.4 times | Average concentration of guest molecule in solution ([3]; binary: 0.5% 102H, within 4 to 6 hours): 110 µg/mL | Concentration of guest molecule in solution ([3]; binary: 0.5% 103E5): 33.4 µg/mL | Times that of the initial medium ([3]; binary: 0.5% 103E5): 6.0 times | Concentration of guest molecule in solution ([3]; binary: 0.5% 107): 171.6 µg/mL | Times that of the initial medium ([3]; binary: 0.5% 107): 30.6 times | Concentration of guest molecule in solution [4, 23]: 512.2 µg/mL | Times that of the initial medium [4, 23]: 91.3 times | Concentration of guest molecule in solution [4, 24]: 572.8 µg/mL | Times that of the initial medium [4, 24]: 102.1 times | Concentration of guest molecule in solution [4, 25]: 543.3 µg/mL | Times that of the initial medium [4, 25]: 96.8 times | Concentration of guest molecule in solution [4, 26]: 431.5 µg/mL | Times that of the initial medium [4, 26]: 76.9 times | Concentration of guest molecule in solution [4, 27]: 609.8 µg/mL | Times that of the initial medium [4, 27]: 108.7 times | Concentration of guest molecule in solution [4, 28]: 644.6 µg/mL | Times that of the initial medium [4, 28]: 115 times | Concentration of guest molecule in solution ([4]; ternary: 102H + 310, carrier % not stated, 6 h): 65.6 µg/mL | Concentration of guest molecule in solution ([4]; ternary: 102H + 310, 2 h): 903.1 µg/mL | Concentration of guest molecule in solution ([4]; ternary: 102H + 311, 4 h): 804.8 µg/mL | Concentration of guest molecule in solution ([4]; ternary: 102H + 311, 6 h): 246.9 µg/mL | Concentration of guest molecule in solution [4, 29]: 634.8 µg/mL | Concentration of guest molecule in solution ([4]; ternary: 102H + 313, 4 h): 884.2 µg/mL | Concentration of guest molecule in solution [4, 30]: 115.4 µg/mL | Concentration of guest molecule in solution ([4]; ternary: 102H + 318, 2 h): 778.1 µg/mL

C=CC(=O)N1CCC[C@@H](n2nc(-c3ccc(Oc4ccccc4)cc3)c3c(N)ncnc32)C1 [Ibrutinib]
Concentration of guest molecule measured after different incubated time ([1]; 0.5 h, 0.05% Tween 20 in pH 6.8 phosphate buffer): 16.5 µg/mL | Concentration of guest molecule measured after different incubated time ([1]; 3 h, 0.05% Tween 20 in pH 6.8 phosphate buffer): 17.9 µg/mL | Concentration of guest molecule measured after different incubated time ([1]; 6 h, 0.05% Tween 20 in pH 6.8 phosphate buffer): 18.4 µg/mL | LogD7.4 or Log P [2]: 3.63 | Concentration of the target in the solution measured after different incubation time [3, 5]: 48.5 µg/mL | Concentration of the target in the solution measured after different incubation time [3, 6]: 93.5 µg/mL | Concentration of the target in the solution measured after different incubation time [3, 7]: 95.3 µg/mL | Concentration of the target in the solution measured after different incubation time [3, 8]: 168.1 µg/mL | Concentration of the target in the solution measured after different incubation time [3, 9]: 176.4 µg/mL | Concentration of the target in the solution measured after different incubation time [3, 10]: 154.5 µg/mL | Concentration of the target in the solution measured after different incubation time [3, 11]: 44.1 µg/mL | Concentration of the target in the solution measured after different incubation time [3, 12]: 17.8 µg/mL | Concentration of the target in the solution measured after different incubation time [3, 13]: 17.1 µg/mL | Concentration of the target in the solution measured after different incubation time [3, 14]: 13.4 µg/mL | Concentration of the target in the solution measured after different incubation time [3, 15]: 13.7 µg/mL | Concentration of the target in the solution measured after different incubation time [3, 16]: 14.3 µg/mL | Concentration of the target in the solution measured after different incubation time [3, 17]: 33.8 µg/mL | Concentration of the target in the solution measured after different incubation time [3, 18]: 65.9 µg/mL | Concentration of the target in the solution measured after different incubation time [3, 19]: 68.4 µg/mL | Concentration of the target in the solution measured after different incubation time [3, 20]: 47.9 µg/mL | Concentration of the target in the solution measured after different incubation time [3, 21]: 53.1 µg/mL | Concentration of the target in the solution measured after different incubation time [3, 22]: 56.0 µg/mL | Concentration of guest molecule in solution ([3]; binary: 0.25% 102H): 260.2 µg/mL | Times that of the initial medium ([3]; binary: 0.25% 102H): 14 times and 14.5 times | Concentration of guest molecule in solution [4, 31]: 157.4 µg/mL | Times that of the initial medium [4, 31]: 8.6 times | Concentration of guest molecule in solution [4, 32]: 156.9 µg/mL | Times that of the initial medium [4, 32]: 8.5 times | Concentration of guest molecule in solution [4, 25]: 206.4 µg/mL | Times that of the initial medium [4, 25]: 11 times | Encapsulation rate for the guest molecule ([4]; ternary: 0.25% 102H + 0.5% 319): ~100% | Concentration of guest molecule in solution [4, 33]: 446.0 µg/mL | Times that of the initial medium [4, 33]: about 25 times | Concentration of guest molecule in solution [4, 34]: 410.7 µg/mL | Times that of the initial medium [4, 34]: 22 times | Concentration of guest molecule in solution [4, 29]: 436.6 µg/mL | Encapsulation rate for the guest molecule ([4]; ternary: 102H + 313 at further increased mass percentage): ~100% | Concentration of guest molecule in solution [4, 35]: 792.1 µg/mL | Times that of the initial medium [4, 35]: 43 times | Concentration of guest molecule in solution [4, 30]: 429.9 µg/mL | Concentration of guest molecule in solution [4, 36]: 774.7 µg/mL | Times that of the initial medium [4, 36]: 42 times
